# Columns and labels:
# [1] = test system: Staphylococcus aureus ATCC 6538; experiment: Coated coupon surface antimicrobial test, Staphylococcus aureus; assay type: cell-based; conditions: Stainless Steel 2″ × 2″ coupons, tested by Applicant, challenged with 1.1 × 10^7 bacteria; copolymer 0.0299 g/m2, Aegis 2.36 g/m2
# Protocol: (§1) The silylated copolymer of Example II hereinabove was dissolved in isopropanol (IPA) to give a 30% w/v (IPA) solution. This IPA solution was then diluted to a 0.1% w/v concentration with additional IPA solvent.
# (§2) 2″×2″ test coupons of Formica and 316 Stainless Steel were first washed with soap and water then wiped with a 70 wt. % aqueous ethanol solution and dried. The copolymer 2600 solution was applied via misting onto the coupon surfaces using a Preval sprayer. The surfaces of the coupons were sprayed until completely covered by the copolymer solution and then dried horizontally for >3 hr. at room temperature. Control coupons were sprayed with 30 wt. % aqueous IPA solution followed by drying under identical conditions. The final areal concentration of the dried copolymer on the test coupon surface was 0.0299 g/m2. All coupons were then irradiated with a C wavelength germicidal Ultraviolet Lamp (UVC) situated within a biosafety cabinet. […]
# Antimicrobial; testing was performed by Applicant and independently by Professor. Charles Gerba, Ph.D. As a control, Applicant also determined the antimicrobial properties of a material sold in commerce by Aegis under the tradename AEM 5772-5.
# [2] = test system: Klebsiella pneumoniae ATCC 4352; experiment: Coated coupon surface antimicrobial test, Klebsiella pneumoniae; assay type: cell-based; conditions: Stainless Steel 2″ × 2″ coupons, tested by Applicant, challenged with 3.8 × 10^7 bacteria; copolymer 0.0299 g/m2, Aegis 2.36 g/m2
# Protocol: as §1, §2
# Antimicrobial; testing was performed by Applicant and independently by Professor. Charles Gerba, Ph.D. As a control, Applicant also determined the antimicrobial properties of a material sold in commerce by Aegis under the tradename AEM 5772-5. […]
compound,measurement,setting,value
"CCCCCCCCCCCCCCCCCC[N+](C)(C)CCC[Si](O)(O)O.[Cl-] [Aegis Quaternary Ammonium Silane, 3-(trihydroxysilyl) propyldimethyloctadecyl ammonium chloride]",Ave. Log10 Reduction ± SD v. control 10 min exposure,[1],0.00 log10
same,Ave. Log10 Reduction ± SD v. control 12 min exposure,[2],1.15 ± 0.26 log10
